Measurements reported in the kinase profiling compilation of Christmann-Franck et al. (2016).

What was measured:
Assay in all cases: KINOMEscan competition binding
Details in all cases: compound 10.0 µM
MAP3K3 (human) = MAP3K3 (human) (UniProt Q99759)
[1] = system: BRAF (human), P15056 [V600E]
MAP4K2 (human) = MAP4K2 (human) (UniProt Q12851)
DDR1 (human) = DDR1 (human) (UniProt Q08345)
ABL2 (human) = ABL2 (human) (UniProt P42684)
MTOR (human) = MTOR (human) (UniProt P42345)
ADCK4 (human) = ADCK4 (human) (UniProt Q96D53)
PIM2 (human) = PIM2 (human) (UniProt Q9P1W9)
CAMK2A (human) = CAMK2A (human) (UniProt Q9UQM7)
LCK (human) = LCK (human) (UniProt P06239)
MAPK9 (human) = MAPK9 (human) (UniProt P45984)
DAPK1 (human) = DAPK1 (human) (UniProt P53355)
SRPK3 (human) = SRPK3 (human) (UniProt Q9UPE1)
[2] = system: EGFR (human), P00533 [T790M/L858R]
IRAK3 (human) = IRAK3 (human) (UniProt Q9Y616)
CAMK1G (human) = CAMK1G (human) (UniProt Q96NX5)
MAP3K7 (human) = MAP3K7 (human) (UniProt O43318)
IKBKE (human) = IKBKE (human) (UniProt Q14164)
ACVR1B (human) = ACVR1B (human) (UniProt P36896)
CLK1 (human) = CLK1 (human) (UniProt P49759)
[3] = system: RET (human), P07949 [V804L]
CDK14 (human) = CDK14 (human) (UniProt O94921)
MAPK12 (human) = MAPK12 (human) (UniProt P53778)
MINK1 (human) = MINK1 (human) (UniProt Q8N4C8)
MAP2K3 (human) = MAP2K3 (human) (UniProt P46734)
PKN3 (M.tuberculosis) = PKN3 (M.tuberculosis) (UniProt Q6P5Z2)
RET (human) = RET (human) (UniProt P07949)
[4] = system: FLT3 (human), P36888 [D835H]
CAMK4 (human) = CAMK4 (human) (UniProt Q16566)
AXL (human) = AXL (human) (UniProt P30530)
SRPK2 (human) = SRPK2 (human) (UniProt P78362)
CHEK2 (human) = CHEK2 (human) (UniProt O96017)
TAOK2 (human) = TAOK2 (human) (UniProt Q9UL54)
TNNI3K (human) = TNNI3K (human) (UniProt Q59H18)
ERBB4 (human) = ERBB4 (human) (UniProt Q15303)
[5] = system: FLT3 (human), P36888 [R834Q]
PIK3CB (human) = PIK3CB (human) (UniProt P42338)
ACVR2A (human) = ACVR2A (human) (UniProt P27037)
PRKD2 (human) = PRKD2 (human) (UniProt Q9BZL6)
KDR (human) = KDR (human) (UniProt P35968)
ANKK1 (human) = ANKK1 (human) (UniProt Q8NFD2)
Chain of ANKK1 (human) (Q8NFD2 whole entry, looked up): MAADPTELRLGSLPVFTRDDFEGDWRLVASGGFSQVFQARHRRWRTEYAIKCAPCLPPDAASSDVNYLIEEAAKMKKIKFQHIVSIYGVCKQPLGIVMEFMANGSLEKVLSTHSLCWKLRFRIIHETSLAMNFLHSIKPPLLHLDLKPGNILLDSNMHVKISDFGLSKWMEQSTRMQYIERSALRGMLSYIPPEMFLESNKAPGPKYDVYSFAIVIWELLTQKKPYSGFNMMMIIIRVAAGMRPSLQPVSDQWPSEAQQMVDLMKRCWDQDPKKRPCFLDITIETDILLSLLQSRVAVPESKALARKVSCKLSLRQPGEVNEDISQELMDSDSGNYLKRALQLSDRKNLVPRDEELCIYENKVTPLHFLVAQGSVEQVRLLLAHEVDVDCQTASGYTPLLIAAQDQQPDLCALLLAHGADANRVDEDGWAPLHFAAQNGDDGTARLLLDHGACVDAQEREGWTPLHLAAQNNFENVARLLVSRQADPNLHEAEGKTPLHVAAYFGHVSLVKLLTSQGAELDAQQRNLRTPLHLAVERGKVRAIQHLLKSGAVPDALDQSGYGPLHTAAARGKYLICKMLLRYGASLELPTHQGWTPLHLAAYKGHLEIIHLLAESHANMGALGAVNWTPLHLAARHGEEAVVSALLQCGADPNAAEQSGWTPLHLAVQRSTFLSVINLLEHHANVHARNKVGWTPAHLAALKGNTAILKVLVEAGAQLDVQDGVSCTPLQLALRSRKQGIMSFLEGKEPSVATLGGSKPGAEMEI

Chain of PKN3 (M.tuberculosis) (Q6P5Z2 whole entry, looked up): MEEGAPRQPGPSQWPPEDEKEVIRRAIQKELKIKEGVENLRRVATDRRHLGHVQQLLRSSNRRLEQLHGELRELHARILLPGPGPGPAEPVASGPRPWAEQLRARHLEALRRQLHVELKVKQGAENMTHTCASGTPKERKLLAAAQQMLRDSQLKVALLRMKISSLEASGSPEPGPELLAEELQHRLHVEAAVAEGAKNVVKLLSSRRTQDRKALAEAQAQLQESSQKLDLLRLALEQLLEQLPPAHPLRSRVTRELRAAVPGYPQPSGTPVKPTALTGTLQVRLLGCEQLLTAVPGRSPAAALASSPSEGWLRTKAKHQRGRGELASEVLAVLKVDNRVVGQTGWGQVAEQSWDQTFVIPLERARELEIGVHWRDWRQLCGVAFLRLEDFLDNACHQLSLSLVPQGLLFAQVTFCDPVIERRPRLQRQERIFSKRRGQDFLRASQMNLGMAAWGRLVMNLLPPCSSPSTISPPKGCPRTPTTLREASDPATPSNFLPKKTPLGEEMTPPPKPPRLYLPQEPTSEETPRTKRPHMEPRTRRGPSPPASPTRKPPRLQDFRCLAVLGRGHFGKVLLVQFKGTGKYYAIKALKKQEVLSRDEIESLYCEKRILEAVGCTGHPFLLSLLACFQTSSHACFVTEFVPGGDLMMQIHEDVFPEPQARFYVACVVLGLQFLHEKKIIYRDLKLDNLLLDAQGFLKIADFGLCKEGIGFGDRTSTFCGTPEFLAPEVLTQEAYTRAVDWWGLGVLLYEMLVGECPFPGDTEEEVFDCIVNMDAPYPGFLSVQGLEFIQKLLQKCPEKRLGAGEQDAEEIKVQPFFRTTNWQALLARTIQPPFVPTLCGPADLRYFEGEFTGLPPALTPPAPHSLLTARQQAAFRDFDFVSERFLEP
Chain of MAP4K2 (human) (Q12851 whole entry, looked up): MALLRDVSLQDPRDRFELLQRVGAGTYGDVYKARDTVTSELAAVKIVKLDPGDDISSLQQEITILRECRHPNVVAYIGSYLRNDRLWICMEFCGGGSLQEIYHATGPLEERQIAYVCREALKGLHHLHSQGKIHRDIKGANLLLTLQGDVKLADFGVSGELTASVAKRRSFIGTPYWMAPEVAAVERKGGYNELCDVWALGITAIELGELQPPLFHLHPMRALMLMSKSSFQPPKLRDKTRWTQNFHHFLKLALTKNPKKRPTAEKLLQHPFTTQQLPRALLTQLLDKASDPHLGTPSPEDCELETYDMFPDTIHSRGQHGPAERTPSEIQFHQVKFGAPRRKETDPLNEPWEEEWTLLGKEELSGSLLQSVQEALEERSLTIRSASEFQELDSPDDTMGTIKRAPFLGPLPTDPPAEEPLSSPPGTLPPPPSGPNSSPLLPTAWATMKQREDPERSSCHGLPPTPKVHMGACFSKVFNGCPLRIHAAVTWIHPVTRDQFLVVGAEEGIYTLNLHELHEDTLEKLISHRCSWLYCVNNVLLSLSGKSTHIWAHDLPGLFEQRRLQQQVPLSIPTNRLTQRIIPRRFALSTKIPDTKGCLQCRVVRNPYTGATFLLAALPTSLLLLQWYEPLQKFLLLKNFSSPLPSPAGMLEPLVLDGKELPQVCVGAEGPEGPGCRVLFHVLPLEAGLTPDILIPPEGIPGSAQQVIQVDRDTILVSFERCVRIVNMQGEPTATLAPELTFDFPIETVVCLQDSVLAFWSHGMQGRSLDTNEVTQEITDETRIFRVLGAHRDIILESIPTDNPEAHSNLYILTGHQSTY
Chain of TNNI3K (human) (Q59H18 whole entry, looked up): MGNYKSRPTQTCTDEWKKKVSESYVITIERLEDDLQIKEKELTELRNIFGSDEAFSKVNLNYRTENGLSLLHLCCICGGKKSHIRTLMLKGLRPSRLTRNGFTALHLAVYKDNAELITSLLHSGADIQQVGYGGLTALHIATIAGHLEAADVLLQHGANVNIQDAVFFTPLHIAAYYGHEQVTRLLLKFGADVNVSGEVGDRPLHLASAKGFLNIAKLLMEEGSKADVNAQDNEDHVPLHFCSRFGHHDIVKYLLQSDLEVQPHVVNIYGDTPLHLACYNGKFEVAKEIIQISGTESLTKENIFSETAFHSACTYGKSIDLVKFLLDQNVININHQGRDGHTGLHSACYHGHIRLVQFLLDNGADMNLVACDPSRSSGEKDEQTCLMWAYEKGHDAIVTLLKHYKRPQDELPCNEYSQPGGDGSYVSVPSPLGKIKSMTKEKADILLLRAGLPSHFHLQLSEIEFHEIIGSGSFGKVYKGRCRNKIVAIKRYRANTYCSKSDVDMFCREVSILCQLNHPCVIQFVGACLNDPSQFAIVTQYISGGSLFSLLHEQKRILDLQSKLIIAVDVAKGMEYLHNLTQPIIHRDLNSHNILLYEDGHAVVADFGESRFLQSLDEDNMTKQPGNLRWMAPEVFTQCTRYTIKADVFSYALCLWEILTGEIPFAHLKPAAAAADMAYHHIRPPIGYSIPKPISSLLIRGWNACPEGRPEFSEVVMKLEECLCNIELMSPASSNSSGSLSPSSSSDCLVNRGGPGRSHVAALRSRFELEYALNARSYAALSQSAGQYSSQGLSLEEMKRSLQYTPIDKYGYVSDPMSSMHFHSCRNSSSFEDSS
Chain of MAP2K3 (human) (P46734 whole entry, looked up): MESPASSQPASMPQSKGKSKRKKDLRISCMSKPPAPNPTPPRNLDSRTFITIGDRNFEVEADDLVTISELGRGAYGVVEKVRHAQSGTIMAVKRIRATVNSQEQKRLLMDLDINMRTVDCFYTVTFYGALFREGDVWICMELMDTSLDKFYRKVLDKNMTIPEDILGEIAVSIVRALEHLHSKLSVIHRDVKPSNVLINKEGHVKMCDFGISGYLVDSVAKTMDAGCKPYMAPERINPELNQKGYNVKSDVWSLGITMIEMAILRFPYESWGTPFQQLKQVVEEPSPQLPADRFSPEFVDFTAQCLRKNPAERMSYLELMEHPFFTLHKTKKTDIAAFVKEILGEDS
Chain of AXL (human) (P30530 whole entry, looked up): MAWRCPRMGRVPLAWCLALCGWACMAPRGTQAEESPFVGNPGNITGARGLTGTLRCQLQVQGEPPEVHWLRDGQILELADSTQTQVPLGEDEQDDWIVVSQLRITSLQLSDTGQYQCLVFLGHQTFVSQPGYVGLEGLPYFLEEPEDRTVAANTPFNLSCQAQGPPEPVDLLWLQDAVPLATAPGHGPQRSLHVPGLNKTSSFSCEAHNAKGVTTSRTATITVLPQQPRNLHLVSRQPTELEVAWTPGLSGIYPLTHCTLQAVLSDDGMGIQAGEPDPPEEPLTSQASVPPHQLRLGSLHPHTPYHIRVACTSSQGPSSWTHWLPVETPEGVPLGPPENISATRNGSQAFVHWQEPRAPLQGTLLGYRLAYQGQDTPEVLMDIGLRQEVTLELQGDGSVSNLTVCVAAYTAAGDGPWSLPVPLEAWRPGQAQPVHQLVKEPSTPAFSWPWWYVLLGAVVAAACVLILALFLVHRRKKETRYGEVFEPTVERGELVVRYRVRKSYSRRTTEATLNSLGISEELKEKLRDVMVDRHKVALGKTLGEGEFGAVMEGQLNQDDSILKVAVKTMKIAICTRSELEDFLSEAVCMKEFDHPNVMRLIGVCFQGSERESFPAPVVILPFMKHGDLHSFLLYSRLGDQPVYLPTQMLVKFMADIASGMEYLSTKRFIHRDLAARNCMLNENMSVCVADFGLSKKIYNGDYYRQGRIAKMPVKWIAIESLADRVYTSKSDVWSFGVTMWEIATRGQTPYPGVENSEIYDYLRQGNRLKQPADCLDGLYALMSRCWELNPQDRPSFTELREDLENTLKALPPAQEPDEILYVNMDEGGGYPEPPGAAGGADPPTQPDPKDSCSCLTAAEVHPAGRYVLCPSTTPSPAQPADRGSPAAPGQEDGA
Chain of MAPK9 (human) (P45984 whole entry, looked up): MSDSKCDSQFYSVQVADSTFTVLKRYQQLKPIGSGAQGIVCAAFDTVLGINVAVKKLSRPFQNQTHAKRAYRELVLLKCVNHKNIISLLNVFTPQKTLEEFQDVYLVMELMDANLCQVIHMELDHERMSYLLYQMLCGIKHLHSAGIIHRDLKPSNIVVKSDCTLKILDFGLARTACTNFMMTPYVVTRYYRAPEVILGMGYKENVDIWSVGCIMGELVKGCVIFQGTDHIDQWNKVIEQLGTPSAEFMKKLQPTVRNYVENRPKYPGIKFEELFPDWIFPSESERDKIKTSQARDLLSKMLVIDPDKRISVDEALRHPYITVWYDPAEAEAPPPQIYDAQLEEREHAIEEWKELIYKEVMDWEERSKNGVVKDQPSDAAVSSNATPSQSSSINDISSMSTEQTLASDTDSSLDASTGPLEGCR

SMILES: COc1ccc(-c2ccc3c(N4CCOCC4)nc(N4C[C@@H](C)O[C@@H](C)C4)nc3n2)cc1CO
- kinase still bound, per cent of control (MAP3K3 (human)): 76%
- kinase still bound, per cent of control [1]: 92%
- kinase still bound, per cent of control (MAP4K2 (human)): 86%
- kinase still bound, per cent of control (DDR1 (human)): 85%
- kinase still bound, per cent of control (ABL2 (human)): 95%
- kinase still bound, per cent of control (MTOR (human)): 0%
- kinase still bound, per cent of control (ADCK4 (human)): 87%
- kinase still bound, per cent of control (PIM2 (human)): 100%
- kinase still bound, per cent of control (CAMK2A (human)): 87%
- kinase still bound, per cent of control (LCK (human)): 98%
- kinase still bound, per cent of control (MAPK9 (human)): 76%
- kinase still bound, per cent of control (DAPK1 (human)): 95%
- kinase still bound, per cent of control (SRPK3 (human)): 75%
- kinase still bound, per cent of control [2]: 100%
- kinase still bound, per cent of control (IRAK3 (human)): 100%
- kinase still bound, per cent of control (CAMK1G (human)): 94%
- kinase still bound, per cent of control (MAP3K7 (human)): 99%
- kinase still bound, per cent of control (IKBKE (human)): 100%
- kinase still bound, per cent of control (ACVR1B (human)): 91%
- kinase still bound, per cent of control (CLK1 (human)): 52%
- kinase still bound, per cent of control [3]: 100%
- per cent of control (CDK14 (human)): 100%
- kinase still bound, per cent of control (MAPK12 (human)): 100%
- kinase still bound, per cent of control (MINK1 (human)): 100%
- kinase still bound, per cent of control (MAP2K3 (human)): 94%
- kinase still bound, per cent of control (PKN3 (M.tuberculosis)): 100%
- kinase still bound, per cent of control (RET (human)): 91%
- kinase still bound, per cent of control [4]: 100%
- kinase still bound, per cent of control (CAMK4 (human)): 100%
- kinase still bound, per cent of control (AXL (human)): 100%
- kinase still bound, per cent of control (SRPK2 (human)): 100%
- kinase still bound, per cent of control (CHEK2 (human)): 100%
- kinase still bound, per cent of control (TAOK2 (human)): 76%
- kinase still bound, per cent of control (TNNI3K (human)): 100%
- kinase still bound, per cent of control (ERBB4 (human)): 89%
- kinase still bound, per cent of control [5]: 100%
- kinase still bound, per cent of control (PIK3CB (human)): 30%
- kinase still bound, per cent of control (ACVR2A (human)): 100%
- kinase still bound, per cent of control (PRKD2 (human)): 96%
- kinase still bound, per cent of control (KDR (human)): 98%
- kinase still bound, per cent of control (ANKK1 (human)): 98%
